According to article PMC9061999, “Application of the Adverse Outcome Pathway Concept to In Vitro Nephrotoxicity Assessment: Kidney Injury due to Receptor-Mediated Endocytosis and Lysosomal Overload as a Case Study” (Frontiers in Toxicology, 2022):

Tested on: NRK-52E cells
Test: LC-MS/MS analysis of intracellular concentration
Assay type: in vitro ADME, rat
Conditions: for Intracellular accumulation in NRK-52E compared to RPTEC-TERT1 cells: 24 h; for Intracellular concentration after recovery compared to the 24 h time-point: 34 µM for 24 h, then 24 h in fresh medium; for Time course of intracellular concentration: within the 24 h treatment period (1-2 min, 1, 3, 6, 24 h), n = 3
Procedure: NRK-52E and RPTEC/TERT1 cells were seeded in 12-well plates (120,000 cells per well) and were allowed to grow for 48 h (NRK-52E) or 10 d (RPTEC/TERT1) until they reached 100% confluence. After cells achieved 100% confluence, the supernatant was aspirated, and the cells were washed twice with 1 x PBS. Cells were treated with polymyxins at a final concentration of 34 µM for 24 h. Samples were taken at five different treatment time points (1–2 min, 1, 3, 6, and 24 h). In addition, a recovery sample was taken 24 h after the end of the 24 h treatment period. To this end, the supernatant was aspirated after 24 h treatment and the cells were washed three times with 1 x PBS to remove polymyxin B or colistin residues. Fresh growth medium was added, and the cells were incubated for another 24 h. At the end of each experiment, the cells were washed 3 times with 1 x PBS and trypsinized by adding 200 µL of trypsin. Detached cells were washed with 1,000 µL 1 x PBS and the cells were transferred to LoBind™ tubes (Eppendorf). Cell count was determined using a Fuchs-Rosenthal counting chamber (Hartenstein). Cells were centrifuged for 5 min at 4°C at 10.000 rpm and the supernatant was aspirated. Cells were resuspended in 1,000 µL 1 x PBS and centrifuged for 5 min at 4°C at 10.000 rpm. After centrifugation, the supernatant was aspirated, and the cell pellet was resuspended in 250 µL ammonium acetate buffer (10 mM) and 250 µL of 30% methanol with 1% acetic acid containing polymyxin B respectively colistin as an internal standard. Cells were sonicated for 10 min and centrifuged for 5 min at 4°C at 14.000 rpm. The supernatant was transferred quantitatively into new LoBind™ tubes (Eppendorf) and dried in a centrifugal vacuum concentrator for 2–3 h. To measure compound plastic binding, the empty 12 well plates were washed with 1.5 ml acetonitrile on an orbital shaker for 2 h and supernatant was collected. For sample purification via solid phase extraction, SPE cartridges Strata-X 33 µm polymeric reversed phase, 10 mg/1 ml (Phenomenex) were used. In the conditioning step the cartridges were rinsed with 200 µL methanol (100%) and subsequently with 200 µL ddH2O to activate the sorbent bed. The dried samples were dissolved in 200 µL 1% acetic acid and transferred onto the SPE cartridge. The SPE cartridge were rinsed once with 200 µL 1% acetic acid. Impurities were removed by rinsing the cartridge once with 200 µL 10% methanol. A fresh LoBind™ tube (Eppendorf) was placed under the SPE cartridge to eluate the samples by rinsing twice with 200 µL 90% methanol containing 1% acetic acid. The samples were dried in a centrifugal vacuum concentrator for 2–3 h. All samples were stored at −20°C until LC-MS/MS analysis.
A triple quadrupole mass spectrometer equipped with a Turbo-Ion® Spray source (QTrap API 2000; AB Sciex Instruments) was used for analyses. The mass spectrometer was coupled to an Agilent 1100 HPLC system consisting of a binary pump system, a vacuum degasser and an autosampler (Agilent 1,100). Chromatographic separation was performed at 40°C with a column oven (Knauer) on a Synergi Hydro-RP column (2 mm × 150 mm, 4 μm, 80 Å; Phenomenex) coupled to a precolumn (SecurityGuard™ Cartridges, AQ C18 4 × 2.0 mm) using a binary step gradient at a flow rate of 0.2 ml/min with the following gradient: 0 min 100% A, 15 min 0% A, 20 min 0% A, 21 min 100% A, and 30 min 100% A. Mobile phase consisted of 3% acetonitrile containing 1% acetic acid and (solvent A) and 97% acetonitrile containing 1% acetic acid (solvent B). The injection volume was set to 10 µL and the total analysis time was 30 min. Following chromatographic separation, multiple ion monitoring was used to detect the triply charged, twice charged, and single charged ions of polymyxins (Table 1). […]

Substance | Intracellular accumulation in NRK-52E compared to RPTEC-TERT1 cells (34 µM) | Intracellular concentration compared to polymyxin B (NRK-52E, 34 µM) | Intracellular concentration after recovery compared to the 24 h time-point (NRK-52E) | Time course of intracellular concentration (NRK-52E, 34 µM)
Colistin | significantly lower in NRK-52E cells | lower intracellular concentrations | declined during the 24 h off-dose recovery period | continuous rise in the intracellular concentration
Polymyxin B | significantly lower in NRK-52E cells |  | declined during the 24 h off-dose recovery period | continuous rise in the intracellular concentration
